Like-named read-outs stand apart in the source and are kept apart here. Numbered stars: 1 amine (or outer) side, 2 acyl side, 3 side chain; on linkers, the order of the positions; unused ones are H or OH. Square brackets hold non-standard residues; d marks the D form. Peptide text beside a SMILES is read from it. * marks the point of attachment. ξ: configuration not given here. Acryloyl(3-(3-pyridyl),E) = O=C(/C=C/c1cccnc1)*; Phe(3,4-Cl2) = N[C@@H](Cc1ccc(Cl)c(Cl)c1)C(=O)O; Phe(3,4-F2) = N[C@@H](Cc1ccc(F)c(F)c1)C(=O)O; Oic = O=C(O)[C@@H]1C[C@@H]2CCCC[C@@H]2N1; Cinnamoyl(4-F) = O=C(/C=C/c1ccc(F)cc1)*; Caffeoyl = O=C(/C=C/c1ccc(O)c(O)c1)*; NH(4-MeO-phenyl) = COc1ccc(N*)cc1; NMeR = CN[C@@H](CCCNC(=N)N)C(=O)O; X2 = O=C(CN(Cc1ccccn1)[*:1])[*:2]; X7 = C[N+](C)=C(NCC(=O)*)N1CCOCC1; X4 = O=C([O-])[C@H](Cc1ccccc1)N*; tBuAla = CC(C)(C)C[C@H](N)C(=O)O; NFurfurylGly = O=C(O)CNCc1ccco1; Cha = N[C@@H](CC1CCCCC1)C(=O)O; NMeD = CN[C@@H](CC(=O)O)C(=O)O; Phe(ol) = N[C@H](CO)Cc1ccccc1; NHPhenethyl = c1ccc(CCN*)cc1; ξOic = O=C(O)C1CC2CCCCC2N1; X6 = O=C(/C=C/c1ccccc1)*; CO = O=C([*:1])[*:2]
Columns and labels:
[1] = target: T1, Escherichia coli SC (^EcSC) (Escherichia coli, UniProt P0A988); assay: biochemical; assay type: binding
T1 construct: His tag (inferred from the pET15b vector and Ni-NTA purification) (N); made in house; host or cells: E. coli
T1 sequence (P0A988 whole entry): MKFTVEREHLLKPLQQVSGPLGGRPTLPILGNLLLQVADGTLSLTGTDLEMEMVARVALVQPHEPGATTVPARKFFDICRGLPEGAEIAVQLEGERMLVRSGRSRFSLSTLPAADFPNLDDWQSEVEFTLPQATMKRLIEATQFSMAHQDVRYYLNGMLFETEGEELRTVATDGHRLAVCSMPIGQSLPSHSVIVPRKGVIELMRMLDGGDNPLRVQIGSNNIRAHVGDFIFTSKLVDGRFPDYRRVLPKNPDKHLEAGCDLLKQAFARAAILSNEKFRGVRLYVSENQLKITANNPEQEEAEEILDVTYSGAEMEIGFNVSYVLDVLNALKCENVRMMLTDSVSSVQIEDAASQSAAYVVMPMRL
Experimental: The procedure has been described previously (Wolff, P.; Oliéric, V.; Briand, J. P.; Chaloin, O.; Dejaegere, A.; Dumas, P.; Ennifar, E.; Guichard, G.; Wagner, J.; Burnouf, D. Y., Structure-Based Design of Short Peptide Ligands Binding onto the E. coli Processivity Ring. J. Med. Chem. 2011, 54 (13), 4627-4637). Briefly, E.coli cells were transformed with plasmids pET15b containing the dnaN gene from E. coli and were grown in LB at 37° C. to OD 0.5, then induced by IPTG (0.1 mM) at 28° C. overnight. dnaN proteins fractions were first enriched on a Ni-NTA column, eluted with a histidine step (300 mM) and further purified on a Source Q column in buffer containing 20 mM Tris HCI pH 7.5, 0.5 mM EDTA and 10% (v/v) glycerol, using a gradient from 0 to 0.5 M NaCl. After a final ultracentrifugation (45 K, 1 h, 20° C.), soluble proteins were concentrated on a Centricon 30 K (Millipore) in the same buffer and stored at 4° C. in 2 M ammonium sulfate. Buffer exchange was performed on Centrikon 10 K at 4° C. before use and protein quality was assessed by DLS.
(§1) ITC experiments were performed using an iTC200 or a PEAQ-ITC instrument (Microcal Malvern Panalytical). Peptides (300 or 600 µM) were titrated at 25° C. by sequential injections (usually 2 µl each) into an SC solution (30 or 60 µM). Data were corrected for heat of injection by subtracting the signal of the titration of peptides into proteiN-free buffer solution (Hepes 10 mM pH 7.4, NaCl 0.15 M, EDTA 3 mM). Each titration was performed at least twice. Analyses of experimental data were performed following a classical treatment with the AFFINImeter software (https://www.affinimeter.com; S4S, Santiago de Compostela, Spain). In addition, kinetic information was obtained in some cases with kinITC as implemented in the software AFFINImeter.
All newly synthesized peptides were tested for their interaction with ^EcSC by ITC at 25° C. As a general rule, all thermodynamic profiles reveal an exothermic interaction, and a non-favorable entropic component. The resulting negative Gibb’s free energies characterize a spontaneous interaction. The analysis of raw data by the Affinimeter® software also gave access to kinetics rate constant of the interaction.

[2] = target: T2, clamps from Pseudomonas aeruginosa (^PaSC) (Pseudomonas aeruginosa, UniProt Q9I7C4); assay: ITC of peptides with P. aeruginosa clamp; assay type: binding
T2 construct: made in house
T2 sequence (Q9I7C4 whole entry): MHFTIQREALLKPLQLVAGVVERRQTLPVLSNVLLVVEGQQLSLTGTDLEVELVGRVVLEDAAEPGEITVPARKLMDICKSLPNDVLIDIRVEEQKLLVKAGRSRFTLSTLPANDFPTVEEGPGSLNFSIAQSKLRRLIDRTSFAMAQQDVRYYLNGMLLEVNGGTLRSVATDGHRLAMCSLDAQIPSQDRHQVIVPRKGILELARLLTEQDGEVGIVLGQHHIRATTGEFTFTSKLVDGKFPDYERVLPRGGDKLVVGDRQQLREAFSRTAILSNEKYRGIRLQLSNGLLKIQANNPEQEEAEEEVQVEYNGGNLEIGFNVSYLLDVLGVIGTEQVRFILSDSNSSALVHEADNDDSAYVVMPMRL
Experimental: as §1
Protein quality was assessed by DLS. The purification of clamps from other bacteria used the same procedure.
The bacterial sliding clamps present a highly conserved binding site among bacterial species. […] All these species belong to the ESKAPE group and are in the first priority bacteria list established by the World Health Organization for which new antibiotics are urgently needed.

[3] = Kd (nM), ITC at 298.15 K (25° C.)
[4] = affinities (Kd in nM), P. aeruginosa, ITC at 25° C., means of three independant experiments, standard deviations in brackets
[5] = affinities (Kd in nM), E.coli, ITC at 25° C., means of three independant experiments, standard deviations in brackets

SMILES | Kd [1, 3] [nM] | kon ([1]; read-out: kon (M^-1 s^-1)) [M⁻¹ s⁻¹] | ΔG (kcal/mol) ([1]; ITC at 298.15 K (25° C.)) | kon ([1]; read-out: kon (M^-1.s^-1)) [M⁻¹ s⁻¹] | further results
CC(=O)N[C@@H](CCC(N)=O)C(=O)N[C@@H](CC1CCCCC1)C(=O)N(C)[C@@H](CC(=O)O)C(=O)N[C@@H](CC(C)C)C(=O)N[C@@H](Cc1ccc(Cl)c(Cl)c1)C(=O)O [P35] (Ac-Q[Cha][NMeD]L[Phe(3,4-Cl2)]-OH) | 41 | 270000 |  |  | Kd [2, 4]: 140 nM
CC(C)C[C@H](NC(=O)[C@H](CC(=O)O)N(C)C(=O)[C@H](CC1CCCCC1)NC(=O)[C@H](CCC(N)=O)NC(=O)/C=C/c1cccnc1)C(=O)N[C@@H](Cc1ccc(Cl)c(Cl)c1)C(=O)O [P38] ({Acryloyl(3-(3-pyridyl),E)}-Q[Cha][NMeD]L[Phe(3,4-Cl2)]-OH) | 46 | 110000 |  |  | Kd [1, 5]: 45 nM; Kd ([2]; ITC at 25° C., means of three independant experiments, standard deviations in brackets, read-out: affinities (Kd in nM), P. aeruginosa): 120 nM; Kd ([2]; range over ^PaSC and ^AbSC, read-out: affinity for these clamps (^PaSC and ^AbSC)): 120 to 170 nM
CC(=O)N(C)[C@@H](CCCNC(=N)N)C(=O)N[C@@H](CCC(N)=O)C(=O)N[C@@H](CC1CCCCC1)C(=O)N(C)[C@@H](CC(=O)O)C(=O)N[C@@H](CC(C)C)C(=O)N[C@@H](Cc1ccc(Cl)c(Cl)c1)C(=O)O [P37] (Ac-[NMeR]Q[Cha][NMeD]L[Phe(3,4-Cl2)]-OH) | 92 |  |  |  | Kd [1, 5]: 74 nM; Kd [2, 4]: 169 nM; Kd ([2]; affinity for these clamps (^PaSC and ^AbSC), range over ^PaSC and ^AbSC): 120 to 170 nM
CC(=O)N[C@@H](CCC(N)=O)C(=O)N[C@@H](CC1CCCCC1)C(=O)N[C@@H](CC(=O)O)C(=O)N[C@@H](CC(C)C)C(=O)N[C@H](CO)Cc1ccccc1 [P24] (Ac-Q[Cha]DL[Phe(ol)]) | 751 |  | -8.4 (± 0.1) kcal/mol | 26000 | 
CC(=O)N[C@@H](CCC(N)=O)C(=O)N[C@@H](CC1CCCCC1)C(=O)N[C@@H](CC(=O)O)C(=O)N[C@@H](CC(C)C)C(=O)N1C(C(=O)N[C@@H](CC(C)C)C(=O)O)CC2CCCCC21 (stereo partly drawn) [P47] (Ac-Q[Cha]DL[ξOic]L-OH) |  | 71000 |  |  | 
CC(=O)N[C@@H](CCC(N)=O)C(=O)N[C@@H](CC1CCCCC1)C(=O)N[C@@H](CC(=O)O)C(=O)N[C@@H](CC(C)C)C(=O)NCCc1ccccc1 [P23] (Ac-Q[Cha]DL-NHPhenethyl) | 922 |  | -8.2 (± 0.05) kcal/mol | 19000 | 
CC(C)C[C@H](NC(=O)[C@H](CC(=O)O)NC(=O)[C@H](CC1CCCCC1)NC(=O)[C@H](CCC(N)=O)NC(=O)/C=C/c1ccc(F)cc1)C(=O)N[C@@H](Cc1ccccc1)C(=O)O [P18] ({Cinnamoyl(4-F)}-Q[Cha]DLF-OH) | 144 |  |  |  | 
CC(C)C[C@H](NC(=O)[C@H](CC(=O)O)N(C)C(=O)[C@H](CC1CCCCC1)NC(=O)[C@H](CCC(N)=O)NC(=O)/C=C/c1cccnc1)C(=O)N1[C@H](C(=O)N[C@@H](Cc2ccccc2)C(=O)O)C[C@@H]2CCCC[C@@H]21 [P49] ({Acryloyl(3-(3-pyridyl),E)}-Q[Cha][NMeD]L[Oic]F-OH) | 118 | 47000 |  |  | ΔG (kcal mol^-1) ([1]; ITC at 25° C.): -9.5 (± 0.1) kcal mol^-1
CC(=O)N[C@@H](CCC(N)=O)C(=O)N[C@@H](CC1CCCCC1)C(=O)N(C)[C@@H](CC(=O)O)C(=O)N[C@@H](CC(C)C)C(=O)N[C@@H](Cc1ccc(F)c(F)c1)C(=O)O [P40] (Ac-Q[Cha][NMeD]L[Phe(3,4-F2)]-OH) | 148 | 56000 |  |  | ΔG (kcal mol^-1) ([1]; ITC at 25° C.): -9.3 (± 0.02) kcal mol^-1
CC(=O)N[C@@H](CCC(N)=O)C(=O)N[C@@H](CC1CCCCC1)C(=O)N[C@@H](CC(=O)O)C(=O)N[C@@H](CC(C)C)C(=O)NCC(=O)N[C@@H](CC(C)(C)C)C(=O)O [P28] (Ac-Q[Cha]DLG[tBuAla]-OH) | 2690 |  | -7.60 (± 0.06) kcal/mol | 11000 | 
CC(C)C[C@H](NC(=O)[C@H](CC(=O)O)NC(=O)[C@H](CC1CCCCC1)NC(=O)[C@H](CCC(N)=O)NC(=O)CNCc1ccco1)C(=O)N[C@@H](Cc1ccccc1)C(=O)O [P9] (H-[NFurfurylGly]Q[Cha]DLF-OH) | 171 |  | -9.2 (± 0.1) kcal/mol | 48000 | 
COc1ccc(NC(=O)N[C@@H](CCC(N)=O)C(=O)N[C@@H](CC2CCCCC2)C(=O)N[C@@H](CC(=O)O)C(=O)N[C@@H](CC(C)C)C(=O)N[C@@H](Cc2ccccc2)C(=O)O)cc1 [P22] ({NH(4-MeO-phenyl)-CO}-Q[Cha]DLF-OH) | 73 |  |  | 40000 | 
CC(=O)N(C)[C@@H](CCCNC(=N)N)C(=O)N[C@@H](CCC(N)=O)C(=O)N[C@@H](CC1CCCCC1)C(=O)N[C@@H](CC(=O)O)C(=O)N[C@@H](CC(C)C)C(=O)N[C@@H](Cc1ccccc1)C(=O)O [P13] (Ac-[NMeR]Q[Cha]DLF-OH) | 2130 |  | -7.7 (± 0.1) kcal/mol | 21000 | koff, fold higher than for peptide 1 (P1) ([1]; compared to P1): 4 fold
CC(C)C[C@H](NC(=O)[C@H](CC(=O)O)N(C)C(=O)[C@H](CC1CCCCC1)NC(=O)[C@H](CCC(N)=O)NC(=O)/C=C/c1ccc(F)cc1)C(=O)N[C@@H](Cc1ccc(F)c(F)c1)C(=O)O [P41] ({Cinnamoyl(4-F)}-Q[Cha][NMeD]L[Phe(3,4-F2)]-OH) | 99 | 51000 |  |  | 
CC(C)C[C@H](NC(=O)[C@H](CC(=O)O)NC(=O)[C@H](CC1CCCCC1)NC(=O)[C@H](CCC(N)=O)NC(=O)CNC(N1CCOCC1)=[N+](C)C)C(=O)N[C@@H](Cc1ccccc1)C(=O)[O-] [P14] (X7-Q[Cha]DL-X4) | 276 |  | -9.0 (± 0.1) kcal/mol | 34000 | 
CC(C)C[C@H](NC(=O)[C@H](CC(=O)O)NC(=O)[C@H](CC1CCCCC1)NC(=O)[C@H](CCC(N)=O)NC(=O)/C=C/c1ccccc1)C(=O)N[C@@H](Cc1ccccc1)C(=O)O [P17] (X6-Q[Cha]DLF-OH) | 129 |  | -9.4 (± 0.2) kcal/mol | 46000 | 
CC(=O)N[C@@H](CCCNC(=N)N)C(=O)N[C@@H](CCC(N)=O)C(=O)N[C@@H](CC1CCCCC1)C(=O)N(C)[C@@H](CC(=O)O)C(=O)N[C@@H](CC(C)C)C(=O)N[C@@H](Cc1ccc(Cl)c(Cl)c1)C(=O)O [P36] (Ac-RQ[Cha][NMeD]L[Phe(3,4-Cl2)]-OH) | 278 | 76000 |  |  | 
CC(=O)N[C@@H](CCC(N)=O)C(=O)N[C@@H](CC1CCCCC1)C(=O)N[C@@H](CC(=O)O)C(=O)N[C@@H](CC(C)C)C(=O)N[C@@H](Cc1ccccc1)C(N)=O [P26] (Ac-Q[Cha]DLF-NH2) | 268 |  | -9.0 (± 0.1) kcal/mol | 33000 | 
COc1ccc(NC(=O)N[C@@H](CCC(N)=O)C(=O)N[C@@H](CC2CCCCC2)C(=O)N(C)[C@@H](CC(=O)O)C(=O)N[C@@H](CC(C)C)C(=O)N[C@@H](Cc2ccc(Cl)c(Cl)c2)C(=O)O)cc1 [P39] ({NH(4-MeO-phenyl)-CO}-Q[Cha][NMeD]L[Phe(3,4-Cl2)]-OH) | 266 | 42000 |  |  | ΔG (kcal mol^-1) ([1]; ITC at 25° C.): -9.0 (± 0.01) kcal mol^-1
CC(C)C[C@H](NC(=O)[C@H](CC(=O)O)NC(=O)[C@H](CC1CCCCC1)NC(=O)[C@H](CCC(N)=O)NC(=O)CNCc1ccccn1)C(=O)N[C@@H](Cc1ccccc1)C(=O)O [P8] (H-[X2]Q[Cha]DLF-OH) | 172 |  |  | 34000 | 
CC(C)C[C@H](NC(=O)[C@@H]1CCCN1C(=O)[C@H](CC(C)C)NC(=O)[C@H](CC(=O)O)N(C)C(=O)[C@H](CC1CCCCC1)NC(=O)[C@H](CCC(N)=O)NC(=O)/C=C/c1cccnc1)C(=O)O [P44] ({Acryloyl(3-(3-pyridyl),E)}-Q[Cha][NMeD]LPL-OH) | 177 | 63000 |  |  | ΔG (kcal mol^-1) ([1]; ITC at 25° C.): -9.2 (± 0.1) kcal mol^-1
CC(C)C[C@H](NC(=O)[C@H](CC(=O)O)NC(=O)[C@H](CC1CCCCC1)NC(=O)[C@H](CCC(N)=O)NC(=O)/C=C/c1ccc(O)c(O)c1)C(=O)N[C@@H](Cc1ccccc1)C(=O)O [P21] (Caffeoyl-Q[Cha]DLF-OH) | 99 |  |  | 46000 | 

Reference: US20230312646A1, “ANTIBACTERIAL PEPTIDES” (priority 2020, published 2023)
